ChEMBL document CHEMBL1149074, “Eusynstyelamide, a highly modified dimer peptide from the ascidian Eusynstyela misakiensis” (J Nat Prod, 1994)

Tested on: HCT-116
Assay: Cytotoxicity against human HCT116 cells upto 100 ug/ml after 72 hrs by XTT assay
Type: functional, cell-based

In the case of `N=C(N)NCCCCNC(=O)C(O)(O)C(c1c[nH]c2cc(Br)ccc12)C(O)(Cc1c[nH]c2cc(Br)ccc12)C(=O)NCCCCNC(=N)N` (stereo unspecified), the Activity is reported as “Not toxic”.
